Laboratory results from article PMC12203311, “Design, synthesis, in silico and in vitro evaluation of pyrrole–indole hybrids as dual tubulin and aromatase inhibitors with potent anticancer activities” (RSC Advances, 2025).

How the values were obtained:
HS 578T = assay: NCI60 five-dose screen; type: cell-based; conditions: Homo sapiens, breast cancer
MDA-MB-435 = assay: NCI60 five-dose screen; type: cell-based, human; conditions: Homo sapiens; MDA-MB-435, melanoma
HCT-116 = assay: NCI60 five-dose screen; type: cell-based; conditions: Homo sapiens, HCT-116, colon cancer
IGROV1 = assay: NCI60 five-dose screen; type: cell-based; conditions: Homo sapiens, IGROV-1; IGROV1, ovarian cancer
MDA-MB-468 = assay: NCI60 five-dose screen; type: cell-based; conditions: Homo sapiens, MDA-MB-468, breast cancer
LOX IMVI = assay: NCI60 five-dose screen; type: cell-based; conditions: Homo sapiens, melanoma
M14 = assay: NCI60 five-dose screen; type: cell-based; conditions: Homo sapiens, M14, melanoma
NCI-H460 = assay: NCI60 five-dose screen; type: cell-based; conditions: Homo sapiens, NCI-H460, NSC lung cancer
HT29 = assay: NCI60 five-dose screen; type: cell-based; conditions: Homo sapiens, HT-29, HT29, colon cancer
MOLT-4 = assay: NCI60 five-dose screen; type: cell-based; conditions: Homo sapiens, MOLT-4, leukemia
UO-31 = assay: NCI60 five-dose screen; type: cell-based; conditions: Homo sapiens, UO-31, renal cancer
SF-295 = assay: NCI60 five-dose screen; type: cell-based; conditions: Homo sapiens, SF-295, CNS cancer
OVCAR-5 = assay: NCI60 five-dose screen; type: cell-based; conditions: Homo sapiens, OVCAR-5, ovarian cancer
HCT-15 = assay: NCI60 five-dose screen; type: cell-based; conditions: Homo sapiens, HCT-15, colon cancer
NCI-H23 = assay: NCI60 five-dose screen; type: cell-based; conditions: Homo sapiens, NCI-H23, NSC lung cancer
HOP-62 = assay: NCI60 five-dose screen; type: cell-based; conditions: Homo sapiens, HOP-62, NSC lung cancer
PC-3 = assay: NCI60 five-dose screen; type: cell-based; conditions: Homo sapiens, PC-3, prostate cancer
SK-MEL-2 = assay: NCI60 five-dose screen; type: cell-based; conditions: Homo sapiens, SK-MEL-2, melanoma
[1] = system: T47D breast cancer cell line; assay: Cytotoxicity MTT assay, T47D; type: cell-based, human; conditions: Homo sapiens, T47D; MTT, 48 hours
In short: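 Cells in DMEM with 10% FBS and penicillin/streptomycin (37 °C, 5% CO2) were seeded at 10 000 per well, grown overnight, then exposed to compounds for 48 hours. MTT (0.5 mg mL^−1) was added for 3 hours, formazan dissolved in DMSO, and absorbance read at 570 nm; viability was expressed against DMSO vehicle.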

OVCAR-8 = assay: NCI60 five-dose screen; type: cell-based; conditions: Homo sapiens, OVCAR-8, ovarian cancer
NCI-H226 = assay: NCI60 five-dose screen; type: cell-based; conditions: Homo sapiens, NCI-H226, NSC lung cancer
RPMI-8226 = assay: NCI60 five-dose screen; type: cell-based; conditions: Homo sapiens, RPMI-8226, leukemia
UACC-257 = assay: NCI60 five-dose screen; type: cell-based; conditions: Homo sapiens, UACC-257, melanoma
HOP-92 = assay: NCI60 five-dose screen; type: cell-based; conditions: Homo sapiens, HOP-92, NSC lung cancer
HCC-2998 = assay: NCI60 five-dose screen; type: cell-based; conditions: Homo sapiens, HCC-2998, colon cancer
OVCAR-3 = assay: NCI60 five-dose screen; type: cell-based; conditions: Homo sapiens, OVCAR-3, ovarian cancer
HL-60 (TB) = assay: NCI60 five-dose screen; type: cell-based; conditions: Homo sapiens, leukemia
MDA-MB-231/ATCC = assay: NCI60 five-dose screen; type: cell-based; conditions: Homo sapiens, breast cancer
CAKI-1 = assay: NCI60 five-dose screen; type: cell-based; conditions: Homo sapiens, CAKI-1, renal cancer
DU-145 = assay: NCI60 five-dose screen; type: cell-based; conditions: Homo sapiens, DU-145, prostate cancer
BT-549 = assay: NCI60 five-dose screen; type: cell-based; conditions: Homo sapiens, BT-549, breast cancer
[2] = read-out: LC50 (the source's name)

O=C(N/N=C/c1ccc[nH]1)c1[nH]c2ccc(Br)cc2c1-c1ccccc1 [Derivative 3a, (E)-N′-((1H-Pyrrol-2-yl)methylene)-5-bromo-3-phenyl-1H-indole-2-carbohydrazide]
GI50 (HS 578T): 452 nM | CC50 (HS 578T; [2]): > 100000 nM | GI50 (MDA-MB-435): 105 nM | GI50 (HCT-116): 280 nM | CC50 (HCT-116; [2]): 32300 nM | GI50 (IGROV1): 404 nM | LC50 (concentration causing 50% net cell kill) (IGROV1): 14600 nM | GI50 (MDA-MB-468): 209 nM | CC50 (MDA-MB-468; [2]): 42100 nM | GI50 (LOX IMVI): 244 nM | CC50 (LOX IMVI; [2]): 19000 nM | GI50 (M14): 304 nM | CC50 (M14; [2]): 41400 nM | GI50 (NCI-H460): 318 nM | CC50 (NCI-H460; [2]): 12500 nM | GI50 (HT29): 329 nM | CC50 (HT29; [2]): 9310 nM | GI50 (MOLT-4): 384 nM | CC50 (MOLT-4; [2]): > 100000 nM | GI50 (UO-31): 431 nM | CC50 (UO-31; [2]): 20200 nM | GI50 (SF-295): 224 nM | CC50 (SF-295; [2]): 23200 nM | GI50 (OVCAR-5): 437 nM | CC50 (OVCAR-5; [2]): 30800 nM | GI50 (HCT-15): 269 nM | CC50 (HCT-15; [2]): 32300 nM | GI50 (NCI-H23): 504 nM | CC50 (NCI-H23; [2]): 37700 nM | GI50 (HOP-62): 684 nM | CC50 (HOP-62; [2]): 32600 nM | GI50 (PC-3): 344 nM | CC50 (PC-3; [2]): 29600 nM | GI50 (SK-MEL-2): 357 nM | CC50 (SK-MEL-2; [2]): 38800 nM | IC50 [1]: 1600 ± 1000 nM | GI50 (OVCAR-8): 323 nM | CC50 (OVCAR-8; [2]): 6550 nM | GI50 (NCI-H226): 323 nM | CC50 (NCI-H226; [2]): 23300 nM | GI50 (RPMI-8226): 337 nM | CC50 (RPMI-8226; [2]): > 100000 nM | GI50 (UACC-257): 647 nM | CC50 (UACC-257; [2]): 47100 nM | GI50 (HOP-92): 992 nM | CC50 (HOP-92; [2]): 26400 nM | GI50 (HCC-2998): 415 nM | CC50 (HCC-2998; [2]): 19500 nM | GI50 (OVCAR-3): 423 nM | CC50 (OVCAR-3; [2]): 35300 nM | GI50 (HL-60 (TB)): 242 nM | CC50 (HL-60 (TB); [2]): > 100000 nM | GI50 (MDA-MB-231/ATCC): 396 nM | CC50 (MDA-MB-231/ATCC; [2]): 21000 nM | GI50 (CAKI-1): 257 nM | CC50 (CAKI-1; [2]): 30900 nM | GI50 (DU-145): 429 nM | CC50 (DU-145; [2]): 33300 nM | GI50 (BT-549): 375 nM | CC50 (BT-549; [2]): 6390 nM
